Test results taken from PubChem BioAssay (NCI).
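Assay format: 96-well plates, 48-hour exposure. Definition used: TGI = concentration required for complete inhibition of growth.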

Tests used:
Assay in all cases: growth of human tumour cells (NCI), 48 h
CAKI-1 renal = system: CAKI-1 renal
MOLT-4 leukemia = system: MOLT-4 leukemia
SF-539 CNS = system: SF-539 CNS
A549 NSCLC = system: A549 NSCLC
LOX IMVI melanoma = system: LOX IMVI melanoma
COLO 205 colon = system: COLO 205 colon
SN12C renal = system: SN12C renal
HOP-92 NSCLC = system: HOP-92 NSCLC
EKVX NSCLC = system: EKVX NSCLC
HT29 colon = system: HT29 colon
OVCAR-4 ovarian = system: OVCAR-4 ovarian
OVCAR-8 ovarian = system: OVCAR-8 ovarian
NCI/ADR-RES ovarian = system: NCI/ADR-RES ovarian
MCF7 breast = system: MCF7 breast
HL-60(TB) leukemia = system: HL-60(TB) leukemia
SNB-19 CNS = system: SNB-19 CNS
DU-145 prostate = system: DU-145 prostate
HOP-62 NSCLC = system: HOP-62 NSCLC
SNB-75 CNS = system: SNB-75 CNS
NCI-H460 lung = system: NCI-H460 lung
KM12 colon = system: KM12 colon
U251 CNS = system: U251 CNS
SR leukemia = system: SR leukemia
SK-MEL-28 melanoma = system: SK-MEL-28 melanoma
MALME-3M melanoma = system: MALME-3M melanoma
OVCAR-5 ovarian = system: OVCAR-5 ovarian
786-0 renal = system: 786-0 renal
NCI-H226 lung = system: NCI-H226 lung
K-562 leukemia = system: K-562 leukemia
OVCAR-3 ovarian = system: OVCAR-3 ovarian
SF-295 CNS = system: SF-295 CNS
CCRF-CEM leukemia = system: CCRF-CEM leukemia
IGROV1 ovarian = system: IGROV1 ovarian
BT-549 breast = system: BT-549 breast
NCI-H23 lung = system: NCI-H23 lung
MDA-MB-231 breast = system: MDA-MB-231 breast
HCT-15 colon = system: HCT-15 colon
UO-31 renal = system: UO-31 renal
HS 578T breast = system: HS 578T breast
SK-MEL-2 melanoma = system: SK-MEL-2 melanoma
RXF 393 renal = system: RXF 393 renal
MDA-N = system: MDA-N
MDA-MB-435 = system: MDA-MB-435
NCI-H522 lung = system: NCI-H522 lung
A498 renal = system: A498 renal
SF-268 CNS = system: SF-268 CNS
HCC-2998 colon = system: HCC-2998 colon
PC-3 prostate = system: PC-3 prostate
T-47D breast = system: T-47D breast
SK-MEL-5 melanoma = system: SK-MEL-5 melanoma
ACHN renal = system: ACHN renal
HCT-116 colon = system: HCT-116 colon
SK-OV-3 ovarian = system: SK-OV-3 ovarian
UACC-62 melanoma = system: UACC-62 melanoma
M14 melanoma = system: M14 melanoma
UACC-257 melanoma = system: UACC-257 melanoma
RPMI-8226 leukemia = system: RPMI-8226 leukemia
TK-10 renal = system: TK-10 renal
SW-620 colon = system: SW-620 colon

Measured: TGI

CCOC(=O)N1CCN(c2ccc3c(C)cc(C)nc3n2)CC1
> 100 µM: all assays above
